In PMC10586017 (ACS Omega, 2023):
Marks after values point to notes of the source that are not given here.

Columns and labels:
Format in all cases: cell-based
[1] = test system: Vero cells; assay: cells; settings: Chlorocebus sabaeus, read-out: mean IC50 Vero cells
[2] = test system: MCF-7 cells; assay: cells; settings: Homo sapiens, MCF7, read-out: mean IC50 MCF-7 ± SD
[3] = test system: Caco-2 cells; assay: cells; settings: Homo sapiens, Caco-2, read-out: mean IC50 Caco-2 ± SD
[4] = test system: HepG-2 cells; assay: cells; settings: Homo sapiens, HepG2, read-out: mean IC50 HepG-2 ± SD
[5] = target: eIF4E (Homo sapiens, UniProt P06730)
[6] = target: p-eIF4E (Homo sapiens, UniProt P06730)
[7] = test system: β-actin

Chain of eIF4E (P06730 whole entry): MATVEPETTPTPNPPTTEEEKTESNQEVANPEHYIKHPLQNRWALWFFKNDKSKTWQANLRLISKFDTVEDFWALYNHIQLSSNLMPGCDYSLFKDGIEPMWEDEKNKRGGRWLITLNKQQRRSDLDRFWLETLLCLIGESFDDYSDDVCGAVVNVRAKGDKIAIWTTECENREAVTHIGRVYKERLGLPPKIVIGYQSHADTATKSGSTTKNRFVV
Chain of p-eIF4E (P06730 whole entry): as above

| Compound | IC50 [1] [µM] | IC50 [2] [µM] | IC50 [3] [µM] | IC50 [4] [µM] | change in fold, eIF4E [5] | decrease in eIF4E protein [5] [%] | mean protein, eIF4E [5] [ng/mL] | protein ratio normalized to reference protein, eIF4E [5] | change in fold, p-eIF4E [6] | inhibition (decrease) of p-eIF4E expression [6] [%] | mean protein, p-eIF4E [6] [ng/mL] | protein ratio normalized to reference protein, p-eIF4E [6] | mean protein, β-actin [7] [ng/mL] | protein ratio normalized to reference protein, β-actin [7] |
| --- | --- | --- | --- | --- | --- | --- | --- | --- | --- | --- | --- | --- | --- | --- |
| CO[C@H]1C[C@@H]2CC[C@@H](C)[C@@](O)(O2)C(=O)C(=O)N2CCCC[C@H]2C(=O)O[C@H]([C@H](C)C[C@@H]2CC[C@@H](O)[C@H](OC)C2)CC(=O)[C@H](C)/C=C(\C)[C@@H](O)[C@@H](OC)C(=O)[C@H](C)C[C@H](C)/C=C/C=C/C=C/1C [Rapamycin] | > 100 | 5.62 ± 0.24 | 27.7 ± 1.63 | 47.6 ± 3.83 |  |  |  |  |  |  |  |  |  |  |
| NC(=O)c1ncn([C@@H]2O[C@H](CO)[C@@H](O)[C@H]2O)n1 [Ribavirin] | > 100 | 10.2 ± 0.15 | 9.78 ± 0.94 | 63.9 ± 3.43 | 0.68 | 32.1 | 2.520 | 42.6* | 0.47 | 53 | 2.190 | 35.5* | 3.118 | 72.2 |
